{"source": "patent US6428823B1", "about": "“Biologically active aqueous fraction of an extract obtained from a mangrove plant Salvadora persica L” (Council of Scientific & Industrial Research, priority 2001, dated 2002)", "test_system": "mammalian tissues", "experiment": "pharmacological screening of purified compounds in mammalian tissues", "conditions": "result in words", "text": "The invention further relates to methods of screening pharmacological activities of the said compounds in mammalian tissues.\nvii) testing the pure compounds by using methods of pharmacology, and\nPharmacological Testing of Pure Compounds", "data": [{"smiles": "CCCCCCCCCCCCCCCC(=O)OC", "note": "[Methyl palmitate]", "values": [{"measurement": "biological activity shown by the extract", "value": "maintained"}]}, {"smiles": "C=C(C)[C@@H]1CC[C@]2(CO)CC[C@]3(C)[C@H](CC[C@@H]4[C@@]5(C)CC[C@H](O)C(C)(C)[C@@H]5CC[C@]43C)[C@@H]12", "note": "[Betulin]", "values": [{"measurement": "biological activity shown by the extract", "value": "maintained"}]}]}
